From patent US4973576A, “Bisphophonic acid derivatives and pharmaceutical compositions containing the same” (Yamanouchi Pharmaceutical Co., Ltd., priority 1987, dated 1990)
“And” between values parts separate entries of the source, which are not always exact repeats. Identical values can stand only once.

Columns and labels:
[1] = system: immobilization-induced atrophy of bone; experiment: Inhibition of bone resorption: immobilization-induced (neurectomy) atrophy of bone in rats; assay type: in vivo, Wistar rats; conditions: for Left humerus Ashed weight / Left humerus Ashed weight / Dry weight / Left humerus Dry weight: 2 weeks; for Difference of Bone Ash Content (b): nontreated minus treated humerus ashed weight; for Difference of Bone Weight (a): nontreated minus treated humerus dry weight
adjuvant arthritis [2] = experiment: Experiment (3)-II: prophylactic effect on adjuvant arthritis in rats; assay type: in vivo, male Lewis rats; conditions: sc; for Thickness of Paw, Left: adjuvant-injected paw; for Thickness of Paw, Right: opposite paw
Experimental: (§1) Specifically, for investigation of the anti-arthritic effect, experimental models of adjuvant arthritis which is resemble to rheumatoid arthritis in human were used in two test methods. In one method to test the therapeutic effect of the compounds, the compounds to be tested were administered to the animals already having the adjuvant arthritis. In the other method to test the prophylactic effect of the compounds, these were administered after the adjuvant administration, and the expression and progress of the resulting arthritis, if any, was observed.
0.05 ml of the suspension of dry dead bacilli of Mycobacterium butyricum as suspended in liquid paraffin in a proportion of 6 mg/ml was subcutaneously injected to male Lewis rats (6 to 7-week) in the left hind paw. After the adjuvant injection, the compound to be tested was administered to the rats once a day for 21 days. Next day after the last administration, the thickness of the both hind paws of the rats was measured.
(§2) For the Experiments (3)-I and (3)-II, the compounds of the present invention were dissolved, using sodium hydroxide and hydrochloric acid in physiological saline (pH 7.4), for subcutaneous administration, in such amount that the dose amounted to 2 ml/kg, and for oral administration, in distilled water (pH 7.4) so that the dose amounted to 5 ml/kg; and indometacin (as comparative drug) was suspended in 0.5% methyl cellulose solution so that the dose amounted to 5 ml/kg. Each rat was weighed at the first day of starting the administration of the compound to be tested and at the last day of the administration of the compound, and the difference of the weight there between (ΔB.W.) was obtained.
(§3) The results for each group were expressed in terms of mean ±S.E. (standard error) and comparison was made among the groups by testing by one-way analysis of variance. The significance level was taken at 5%.

adjuvant arthritis [3] = experiment: Experiment (3)-I: therapeutic effect on adjuvant arthritis in rats; assay type: in vivo, male Lewis rats
Experimental: as §1
0.1 ml of a suspension of dry dead cells of Mycobacterium butyricum as suspended in liquid paraffin in a proportion of 6 mg/ml was subcutaneously injected to male Lewis rats (7-week) in the tail. After 17 or 18 days, the thickness of the both hind paws was measured. One group comprising six rats in which the arthritis was noticeably observed was isolated. After the grouping day, the compound to be tested was subcutaneously or orally administered once a day for 14 days to the rats. Next day after the last administration, the thickness of the soles of the both hind legs was again measured.
as §2, §3

[4] = Acute toxicity test in rats; assay type: in vivo; conditions: sc, 10 mg/kg/day for continuous two weeks
Experimental: The compound of Manufacture Example 1 was subcutaneously injected to rats in an amount of 10 mg/kg/day for continuous two weeks, and no rats died.

[5] = system: hypercalcemia induced by administration of parathyroid hormone (PTH); experiment: Inhibitory effect on hypercalcemia induced by PTH in rats (serum Ca++); assay type: in vivo, male Wistar rats; conditions: mean ± S.E.
Experimental: Rats of hypercalcemia induced by administration of parathyroid hormone (hereinafter referred to as "PTH") were used, and the decrement of the serum calcium amount by administration of the compound was measured.
30 μg/kg of human 1-34 PTH (manufactured by Peptide Laboratory) which was dissolved in a 0.1% BSA (bovine serum albumin)-containing physiological saline (content of the PTH is 6 μg/ml) was intravenously injected in an amount of 30 μg/kg (5 ml/kg as the solution) to 5-week male Wistar rats which had been fasting for 20 hours. Only 0.1% BSA-containing physiological saline was injected to the normal control group in the same manner. 45 minutes after the PTH injection, the rats were etherized and then subjected to celiotomy, whereby the blood was collected from the abdominal cava with a vacuum blood-collecting tube. The blood collected was immediately centrifuged by 3000 rpm, at 4° C. for 10 minutes to isolate the serum. The ionized calcium (Ca^++) concentration in the serum was immediately measured with a Ca^++ meter (Sera 250, manufactured by Horiba Manufacturing Co.).
The compounds of the present invention were dissolved using sodium hydroxide and hydrochloric acid, in physiological saline (pH 7.4), for subcutaneous administration, in such amounts that the dose amounted to 2 ml/kg, and for oral administration, in distilled water (pH 7.4) so that the dose amounted to 5 ml/kg. They were administered 24 or 72 hours before the PTH injection. A physiological saline or a distilled water was administered to the normal control group and the control group, in the same manner. Salmon calcitonin (SCT, manufactured by Armour Co.) was dissolved in physiological saline so that the dose amounted to 2 ml/kg, and then subcutaneously administered 30 minutes before the PTH injection.
The results for each group were expressed in terms of mean±S.E. (standard error) and comparison was made among the groups by testing by one-way analysis of variance. The significance level was taken at 5%.

[6] = sc, 10 mg/kg once a day 14 days
[7] = po, 10 mg/kg once a day 14 days
[8] = po, 30 mg/kg once a day 14 days
[9] = po, 100 mg/kg once a day 14 days, 100 mg/kg
[10] = sc, 0.1 mg/kg once a day 14 days
[11] = sc, 0.3 mg/kg once a day 14 days
[12] = sc, 1.0 mg/kg once a day 14 days
[13] = sc, 3.0 mg/kg once a day 14 days

Which results are given for `Cc1cc(NC(P(=O)(O)O)P(=O)(O)O)no1` [Manufacture Example 1, [(5-methyl-3-isoxazolyl)amino]methylene-bis(phosphonic acid)]?
Left humerus Ashed weight ([1]; oral, 10 mg/kg): 54.9 ± 1.3 mg; Left humerus Ashed weight / Dry weight ([1]; oral, 10 mg/kg): 53.4 ± 0.3%; Left humerus Dry weight ([1]; oral, 10 mg/kg): 102.8 ± 2.2 mg; Left humerus Ashed weight ([1]; oral, 30 mg/kg): 61.0 ± 1.0 mg; Left humerus Ashed weight / Dry weight ([1]; oral, 30 mg/kg): 54.4 ± 0.3%; Left humerus Dry weight ([1]; oral, 30 mg/kg): 112.1 ± 1.4 mg; Left humerus Ashed weight ([1]; oral, 100 mg/kg): 68.9 ± 1.3 mg; Left humerus Ashed weight / Dry weight ([1]; oral, 100 mg/kg): 55.6 ± 0.2%; Left humerus Dry weight ([1]; oral, 100 mg/kg): 123.9 ± 2.3 mg; Left humerus Ashed weight ([1]; sc, 0.1 mg/kg): 64.9 ± 1.2 mg; Left humerus Ashed weight / Dry weight ([1]; sc, 0.1 mg/kg): 56.9 ± 0.1%; Left humerus Dry weight ([1]; sc, 0.1 mg/kg): 113.9 ± 2.0 mg; Left humerus Ashed weight ([1]; sc, 0.3 mg/kg): 65.4 ± 1.6 mg; Left humerus Ashed weight / Dry weight ([1]; sc, 0.3 mg/kg): 57.2 ± 0.3%; Left humerus Dry weight ([1]; sc, 0.3 mg/kg): 114.4 ± 2.6 mg; Left humerus Ashed weight ([1]; sc, 1.0 mg/kg): 70.1 ± 1.1 mg; Left humerus Ashed weight / Dry weight ([1]; sc, 1.0 mg/kg): 57.8 ± 0.4%; Left humerus Dry weight ([1]; sc, 1.0 mg/kg): 121.3 ± 2.1 mg; Difference of Bone Ash Content (b) ([1]; sc, 3 mg/kg once a day 14 days): 4.8 ± 0.5 mg; Difference of Bone Weight (a) ([1]; sc, 3 mg/kg once a day 14 days): 8.0 ± 1.0 mg; Difference of Bone Ash Content (b) [1, 6]: 1.7 ± 0.5 mg; Difference of Bone Weight (a) [1, 6]: 3.2 ± 0.7 mg; ΔB.W. (adjuvant arthritis [2]; 0.1 mg/kg once a day 21 days): 238 ± 2 g; Thickness of Paw, Left (adjuvant arthritis [2]; 0.1 mg/kg once a day 21 days): 1277 ± 19 × 0.01 mm; Thickness of Paw, Right (adjuvant arthritis [2]; 0.1 mg/kg once a day 21 days): 1279 ± 27 × 0.01 mm; ΔB.W. (adjuvant arthritis [2]; 0.3 mg/kg once a day 21 days): 239 ± 2 g; Thickness of Paw, Left (adjuvant arthritis [2]; 0.3 mg/kg once a day 21 days): 1158 ± 12 × 0.01 mm; Thickness of Paw, Right (adjuvant arthritis [2]; 0.3 mg/kg once a day 21 days): 1107 ± 25 × 0.01 mm; ΔB.W. (adjuvant arthritis [2]; 1.0 mg/kg once a day 21 days): 233 ± 3 g; Thickness of Paw, Left (adjuvant arthritis [2]; 1.0 mg/kg once a day 21 days): 1174 ± 14 × 0.01 mm; Thickness of Paw, Right (adjuvant arthritis [2]; 1.0 mg/kg once a day 21 days): 1110 ± 28 × 0.01 mm; Thickness of Paw (average of right and left paws) (adjuvant arthritis [3]; [7]): 1435 ± 49 × 0.01 mm; ΔB.W. (adjuvant arthritis [3]; [7]): 23.3 ± 0.9 g; Thickness of Paw (average of right and left paws) (adjuvant arthritis [3]; [8]): 1296 ± 45 × 0.01 mm; ΔB.W. (adjuvant arthritis [3]; [8]): 32.8 ± 1.7 g; Thickness of Paw (average of right and left paws) (adjuvant arthritis [3]; [9]): 1131 ± 36 × 0.01 mm and 1083 ± 36 × 0.01 mm; ΔB.W. (adjuvant arthritis [3]; [9]): 50 ± 3 g and 43.3 ± 2.0 g; Thickness of Paw (average of right and left paws) (adjuvant arthritis [3]; [10]): 1258 ± 31 × 0.01 mm; ΔB.W. (adjuvant arthritis [3]; [10]): 40 ± 2 g; Thickness of Paw (average of right and left paws) (adjuvant arthritis [3]; [11]): 1102 ± 36 × 0.01 mm; ΔB.W. (adjuvant arthritis [3]; [11]): 50 ± 2 g; Thickness of Paw (average of right and left paws) (adjuvant arthritis [3]; [12]): 956 ± 36 × 0.01 mm; ΔB.W. (adjuvant arthritis [3]; [12]): 56 ± 4 g; Thickness of Paw (average of right and left paws) (adjuvant arthritis [3]; [13]): 974 ± 32 × 0.01 mm; ΔB.W. (adjuvant arthritis [3]; [13]): 56 ± 1 g; mortality [4]: no rats died; Serum Ca++ ([5]; oral, 30 mg/kg, 72 hours before PTH injection): 1.48 ± 0.01 m mole/liter; Serum Ca++ ([5]; oral, 100 mg/kg, 24 hours before PTH injection): 1.44 ± 0.02 m mole/liter; Serum Ca++ ([5]; oral, 100 mg/kg, 72 hours before PTH injection): 1.16 ± 0.03 m mole/liter; Serum Ca++ ([5]; oral, 300 mg/kg, 24 hours before PTH injection): 1.41 ± 0.01 m mole/liter; Serum Ca++ ([5]; sc, 0.3 mg/kg, 24 hours before PTH injection): 1.43 ± 0.02 m mole/liter; Serum Ca++ ([5]; sc, 1.0 mg/kg, 24 hours before PTH injection): 1.40 ± 0.01 m mole/liter; Serum Ca++ ([5]; sc, 3.0 mg/kg, 24 hours before PTH injection): 1.36 ± 0.02 m mole/liter
